Data on 25 molecules can be found in EP2608671B1, “COMPOUNDS FOR TREATMENT OF CANCER” (Gtx, Inc., priority 2010, dated 2012).

Like-named read-outs stand apart in the source and are kept apart here. Bounds are passed on as bounds.

In assay [1] the test system is PC-3. Put plainly: cells. The text has this:
(§1) The only compounds which belong to the invention are the ones falling under the scope of formula (XI).
Cells were stained with SRB solution.
Cells. […] Cells between the third and fifth passages were used for experiments.
Cell growth inhibition studies. […] Cells were stained with sulphorhodamine B (SRB) solution.

For assay [2], the system named is PPC-1. Put plainly: cells. To be noted: Homo sapiens.
Assay [3] has as its system DU 145. Description: cells. To be noted: Homo sapiens.
Assay [4] has as its system LNCaP. Put plainly: cells. The following applies: Homo sapiens.
Assay [5] concerns A375. Description: SRB cell growth inhibition (cytotoxicity) assay. Type of assay: cell-based, human. To be noted: Homo sapiens.
Assay [6] has as its system B16-F1. Description: SRB cell growth inhibition (cytotoxicity) assay. To be noted: Mus musculus, B16-F1; read-out: IC50 ± SEM (nM), B16-F1. Type of assay: cell-based, mouse.
Excerpt: as §1

Setting [7] is: Homo sapiens, PC-3, 96 h, read-out: IC50 ± SEM (nM), PC-3.
[8] abbreviates: PPC-1, 96 h, read-out: IC50 ± SEM (nM), PPC-1.
[9] abbreviates: DU-145, 96 h, read-out: IC50 ± SEM (nM), DU 145.
The mark [10] stands for this setting: 96 h, read-out: IC50 ± SEM (nM), LNCaP.
Setting [11] is: A-375, 96 h, read-out: IC50 ± SEM (nM), A375.
Setting [12] is: Homo sapiens, PC-3, 96 h, read-out: IC50 (nM), PC-3.
Where [13] appears, read: DU-145, 96 h, read-out: IC50 ± SEM (nM) Du 145.
The mark [14] stands for this setting: Homo sapiens, PC-3, read-out: IC50 (nM), PC-3.
[15] abbreviates: PPC-1, read-out: IC50 (nM), PPC-1.
[16] abbreviates: DU-145, read-out: IC50 (nM), DU 145.

For the molecule `COc1cc(C(=O)c2cccc(-c3ccccc3)c2)cc(OC)c1OC` [1a, Biphenyl-3-yl(3,4,5-trimethoxyphenyl)methanone], the half-inhibitory concentration (IC50) (as a rule, the concentration that inhibits the measured activity by half) in assay [1] (setting [7]) was determined as 81 nM; in assay [2] (setting [8]) it was 85 nM; in assay [3] (setting [9]) it was 178 nM; in assay [4] (setting [10]), 234 nM; in assay [5] (setting [11]), 87 ± 15 nM; in assay [6] it was 500 ± 200 nM.

With `COc1cc(NC(=O)c2csc(-c3ccccc3)n2)cc(OC)c1OC` [2g, 2-Phenyl-N-(3,4,5-trimethoxyphenyl)thiazole-4-carboxamide], the IC50 is > 10000 nM in assay [1] (setting [7]); > 10000 nM in assay [2] (setting [8]); > 10000 nM in assay [3] (setting [9]); > 30000 nM in assay [5] (setting [11]); > 30000 nM in assay [6].

On to `COc1cc(C(=O)c2csc(Nc3ccc(Cl)cc3)n2)cc(OC)c1OC` [5d, (2-((4-Chlorophenyl)amino)thiazol-4-yl)(3,4,5-trimethoxyphenyl)methanone], for which the IC50 in assay [1] (setting [7]) came out at 33 ± 1 nM; in assay [2] (setting [8]), 36 ± 1 nM; in assay [3] (setting [9]), 73 ± 1 nM; in assay [4] (setting [10]), 45 ± 1 nM; in assay [5] (setting [11]), 25 ± 7 nM.

`Clc1nccc2ccc(-c3ccc4[nH]ccc4c3)cc12` [6d, 1-Chloro-7-(1H-indol-5-yl)-isoquinoline]: the IC50 stood at 908 nM in assay [1] (Homo sapiens, PC-3, read-out: IC50 ±SEM (nM), PC-3); 929 nM in assay [2] (PPC-1, read-out: IC50 ±SEM (nM), PPC-1); 1640 nM in assay [3] (DU-145, read-out: IC50 ±SEM (nM), DU 145); 703 nM in assay [4] (read-out: IC50 ±SEM (nM), LNCaP).

As for `O=S(=O)(c1ccccc1)n1ccnc1-c1ccccc1` [10a, 2-phenyl-1-(phenylsulfonyl)-1H-imidazole], the IC50 in assay [1] (setting [12]) is > 10000 nM.

For the molecule `O=S(=O)(c1ccccc1)n1ccnc1-c1ccc(OCc2ccccc2)cc1` [10j, 2-(4-(benzyloxy)phenyl)-1-(phenylsulfonyl)-1H-imidazole], the IC50 in assay [1] (setting [12]) is > 10000 nM.

As to `O=[N+]([O-])c1ccc(-c2nccn2S(=O)(=O)c2ccccc2)cc1` [10x, 2-(4-nitrophenyl)-1-(phenylsulfonyl)-1H-imidazole], in assay [1] (setting [12]), the concentration for half-maximal inhibition (IC50) is > 10000 nM.

For the molecule `COc1cc(C(=O)n2ccnc2-c2ccccc2)cc(OC)c1OC` [12aaa, (2-phenyl-1H-imidazol-1-yl)(3,4,5-trimethoxyphenyl)methanone], the IC50 in assay [1] (setting [12]) is > 10000 nM.

Consider `COc1ccc(C(=O)n2ccnc2-c2ccccc2)cc1` [12aba], for which the IC50 in assay [1] (read-out: IC50 (nM), PC-3, SRB, 96 h, Table 11) is > 10000 nM.

With `COc1ccc(C(=O)c2c[nH]c(-c3ccccc3)n2)cc1OC` [12ae, (3,4-dimethoxyphenyl)(2-phenyl-1H-imidazol-4-yl)methanone], in assay [1] (setting [12]), the IC50 was > 10000 nM.

`O=C(c1cccc(F)c1)c1c[nH]c(-c2ccccc2)n1` [12ag, (3-fluorophenyl)(2-phenyl-1H-imidazol-4-yl)methanone]: in assay [1] (setting [12]), the IC50 is > 10000 nM.

On to `COc1cc(C(=O)c2c[nH]c(-c3ccc(F)cc3)n2)cc(OC)c1OC` [12ba, (2-(4-fluorophenyl)-1H-imidazol-4-yl)(3,4,5-trimethoxyphenyl)methanone], for which the concentration for half-maximal inhibition (IC50) in assay [1] (setting [7]) was determined as 169 ± 12 nM; in assay [2] (setting [8]) it was 81 ± 1 nM; in assay [3] (setting [13]) it was 132 ± 24 nM; in assay [4] (setting [10]), 98 ± 2 nM.

In the case of `COc1ccc(-c2nc(C(=O)c3cc(OC)c(OC)c(OC)c3)c[nH]2)cc1` [12ca, (2-(4-methoxyphenyl)-1H-imidazol-4-yl)(3,4,5-trimethoxyphenyl)methanone], the IC50 in assay [1] (setting [7]) amounted to 45 ± 1 nM; in assay [2] (setting [8]) it was 34 ± 0.3 nM; in assay [3] (setting [13]), 48 ± 0.5 nM.

As for `COc1cc(C(=O)c2cn(Cc3ccccc3)c(-c3ccc(C)cc3)n2)cc(OC)c1OC` [12daa, (1-Benzyl-2-(p-tolyl)-1H-imidazol-4-yl)(3,4,5-trimethoxyphenyl)methanone], the IC50 in assay [1] (setting [7]) is 466 nM; in assay [2] (setting [8]), 778 nM; in assay [3] (setting [13]) it was 1500 nM; in assay [4] (setting [10]), 683 nM.

Consider `COc1cc(C(=O)c2c[nH]c(-c3ccc(N(C)C)cc3)n2)cc(OC)c1OC` [12ga, (2-(4-(dimethylamino)phenyl)-1H-imidazol-4-yl)(3,4,5-trimethoxyphenyl)methanone], for which the IC50 in assay [1] (setting [7]) is 92 ± 4 nM; in assay [2] (setting [8]), 67 ± 0.7 nM; in assay [3] (setting [13]), 95 ± 1 nM; in assay [4] (setting [10]), 58 ± 2 nM.

Consider `CN(C)c1ccc(-c2nc(C(=O)c3ccc(F)cc3)c[nH]2)cc1` [12gb, (2-(4-(dimethylamino)phenyl)-1H-imidazol-4-yl)(4-fluorophenyl)methanone], for which the IC50 was determined as 81 ± 3 nM in assay [1] (setting [7]), 45 ± 0.3 nM in assay [2] (setting [8]) and 57 ± 6 nM in assay [4] (setting [10]).

With `COc1ccc(-c2nc(C(=O)c3ccc(F)cc3)c[nH]2)cc1OC` [12hb, (2-(3,4-dimethoxyphenyl)-1H-imidazol-4-yl)(4-fluorophenyl)methanone], the IC50 in assay [1] (setting [7]) is 10000 nM; in assay [2] (setting [8]), 2170 ± 48 nM; in assay [3] (setting [13]), 10000 nM; in assay [4] (setting [10]), 2530 nM; in assay [5] (A-375, A375 melanoma cells, 48 h, SRB, read-out: IC50 ± SEM (nM) A375) it was 10000 nM.

On to `COc1cc(C(=O)c2c[nH]c(-c3ccc(OCc4ccccc4)cc3)n2)cc(OC)c1OC` [12ja, (2-(4-(benzyloxy)phenyl)-1H-imidazol-4-yl)(3,4,5-trimethoxyphenyl)methanone], for which the IC50 in assay [1] (setting [7]) came to 10000 nM; in assay [2] (setting [8]), 2840 nM; in assay [3] (setting [13]), 10000 nM; in assay [4] (setting [10]) it was 2790 nM.

Take `O=C(c1ccc(F)cc1)c1c[nH]c(-c2ccc(OCc3ccccc3)cc2)n1` [12jb, (2-(4-(benzyloxy)phenyl)-1H-imidazol-4-yl)(4-fluorophenyl)methanone]: the half-inhibitory concentration (IC50) is 79 ± 0.4 nM in assay [1] (setting [7]), 43 ± 0.2 nM in assay [2] (setting [8]), 60 ± 3 nM in assay [3] (setting [13]) and 44 ± 7 nM in assay [4] (setting [10]).

On to `Fc1ccc(-c2ccc3ccnc(-c4ccc(F)cc4)c3c2)cc1` [compound 40, 1,7-Bis-(4-fluoro-phenyl)-isoquinoline], for which the IC50 is 19600 nM in assay [1] (setting [14]); 6200 nM in assay [2] (setting [15]); 18400 nM in assay [3] (setting [16]); 13400 nM in assay [4] (read-out: IC50 (nM), LNCaP).

Take `O=S(=O)(c1ccc(F)cc1)N1CCCc2ccc(-c3ccc4[nH]ccc4c3)cc21` [compound 41, 1-(4-Fluoro-benzenesulfonyl)-7-(1H-indol-5-yl)-1,2,3,4-tetrahydroquinoline]: the half-maximal inhibitory concentration (IC50) in assay [1] (setting [14]) was 18200 nM; in assay [2] (setting [15]), > 20000 nM; in assay [3] (setting [16]), 17000 nM; in assay [4] (read-out: IC50 (nM), LNCaP), 15800 nM.

Regarding `O=S(=O)(c1ccc(F)cc1)N1CCc2ccc(Br)cc2C1` [compound 42, 7-Bromo-2-(4-fluoro-benzenesulfonyl)-1,2,3,4-tetrahydro-isoquinoline], the IC50 in assay [1] (setting [14]) was 23800 nM; in assay [2] (setting [15]) it was > 20000 nM; in assay [3] (setting [16]), 24900 nM; in assay [4] (read-out: IC50 (nM), LNCaP), 43600 nM.

Regarding `O=S(=O)(c1ccc(F)cc1)N1CCCc2ccc(Br)cc21` [compound 43, 7-Bromo-1-(4-fluoro-benzenesulfonyl)-1,2,3,4-tetrahydroquinoline], the IC50 in assay [1] (setting [14]) was 14700 nM; in assay [2] (setting [15]), > 20000 nM; in assay [3] (setting [16]), 17200 nM; in assay [4] (read-out: IC50 (nM), LNCaP) it was 12700 nM.

As to `c1ccc(Nc2nccn2C(c2ccccc2)(c2ccccc2)c2ccccc2)cc1` [d, N-Phenyl-1-trityl-1H-imidazol-2-amine], the half-maximal inhibitory concentration (IC50) in assay [1] (setting [7]), in assay [2] (setting [8]), in assay [3] (setting [9]) and in assay [4] (setting [10]) was > 1000 nM in each case.

For the molecule `COc1cc(C(=O)c2cn(C(c3ccccc3)(c3ccccc3)c3ccccc3)c(Nc3ccccc3)n2)cc(OC)c1OC` [e, (2-(Phenylamino)-1-trityl-1H-imidazol-4-yl)(3,4,5 trimethoxyphenyl)methanone], the IC50 in assay [1] (setting [7]), in assay [2] (setting [8]), in assay [3] (setting [9]) and in assay [4] (setting [10]) was > 1000 nM in each case.
